In patent US10392391B2 (Vertex Pharmaceuticals Incorporated, priority 2012, dated 2019):

These compounds were tested against ATR kinase (full-length ATR) (Homo sapiens (Human), UniProt Q13535) (assay: ATR inhibition assay (radioactive-phosphate incorporation)). Conditions: Ki(app), 5 nM full-length ATR, 10 μM ATP, 25° C.
Type: biochemical
Method in brief: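 Radiometric 33P incorporation by 5 nM full-length ATR into 800 μM target peptide with 10 μM [γ-33P]ATP, in 50 mM Tris/HCl pH 7.5, 10 mM MgCl2, 1 mM DTT, 7% DMSO, 25° C. Compound pre-incubated 10 minutes; reaction stopped after 24 hours, captured on phosphocellulose. Ki(app) from non-linear regression of initial rates.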

Chain of ATR kinase (full-length ATR) (Q13535 whole entry): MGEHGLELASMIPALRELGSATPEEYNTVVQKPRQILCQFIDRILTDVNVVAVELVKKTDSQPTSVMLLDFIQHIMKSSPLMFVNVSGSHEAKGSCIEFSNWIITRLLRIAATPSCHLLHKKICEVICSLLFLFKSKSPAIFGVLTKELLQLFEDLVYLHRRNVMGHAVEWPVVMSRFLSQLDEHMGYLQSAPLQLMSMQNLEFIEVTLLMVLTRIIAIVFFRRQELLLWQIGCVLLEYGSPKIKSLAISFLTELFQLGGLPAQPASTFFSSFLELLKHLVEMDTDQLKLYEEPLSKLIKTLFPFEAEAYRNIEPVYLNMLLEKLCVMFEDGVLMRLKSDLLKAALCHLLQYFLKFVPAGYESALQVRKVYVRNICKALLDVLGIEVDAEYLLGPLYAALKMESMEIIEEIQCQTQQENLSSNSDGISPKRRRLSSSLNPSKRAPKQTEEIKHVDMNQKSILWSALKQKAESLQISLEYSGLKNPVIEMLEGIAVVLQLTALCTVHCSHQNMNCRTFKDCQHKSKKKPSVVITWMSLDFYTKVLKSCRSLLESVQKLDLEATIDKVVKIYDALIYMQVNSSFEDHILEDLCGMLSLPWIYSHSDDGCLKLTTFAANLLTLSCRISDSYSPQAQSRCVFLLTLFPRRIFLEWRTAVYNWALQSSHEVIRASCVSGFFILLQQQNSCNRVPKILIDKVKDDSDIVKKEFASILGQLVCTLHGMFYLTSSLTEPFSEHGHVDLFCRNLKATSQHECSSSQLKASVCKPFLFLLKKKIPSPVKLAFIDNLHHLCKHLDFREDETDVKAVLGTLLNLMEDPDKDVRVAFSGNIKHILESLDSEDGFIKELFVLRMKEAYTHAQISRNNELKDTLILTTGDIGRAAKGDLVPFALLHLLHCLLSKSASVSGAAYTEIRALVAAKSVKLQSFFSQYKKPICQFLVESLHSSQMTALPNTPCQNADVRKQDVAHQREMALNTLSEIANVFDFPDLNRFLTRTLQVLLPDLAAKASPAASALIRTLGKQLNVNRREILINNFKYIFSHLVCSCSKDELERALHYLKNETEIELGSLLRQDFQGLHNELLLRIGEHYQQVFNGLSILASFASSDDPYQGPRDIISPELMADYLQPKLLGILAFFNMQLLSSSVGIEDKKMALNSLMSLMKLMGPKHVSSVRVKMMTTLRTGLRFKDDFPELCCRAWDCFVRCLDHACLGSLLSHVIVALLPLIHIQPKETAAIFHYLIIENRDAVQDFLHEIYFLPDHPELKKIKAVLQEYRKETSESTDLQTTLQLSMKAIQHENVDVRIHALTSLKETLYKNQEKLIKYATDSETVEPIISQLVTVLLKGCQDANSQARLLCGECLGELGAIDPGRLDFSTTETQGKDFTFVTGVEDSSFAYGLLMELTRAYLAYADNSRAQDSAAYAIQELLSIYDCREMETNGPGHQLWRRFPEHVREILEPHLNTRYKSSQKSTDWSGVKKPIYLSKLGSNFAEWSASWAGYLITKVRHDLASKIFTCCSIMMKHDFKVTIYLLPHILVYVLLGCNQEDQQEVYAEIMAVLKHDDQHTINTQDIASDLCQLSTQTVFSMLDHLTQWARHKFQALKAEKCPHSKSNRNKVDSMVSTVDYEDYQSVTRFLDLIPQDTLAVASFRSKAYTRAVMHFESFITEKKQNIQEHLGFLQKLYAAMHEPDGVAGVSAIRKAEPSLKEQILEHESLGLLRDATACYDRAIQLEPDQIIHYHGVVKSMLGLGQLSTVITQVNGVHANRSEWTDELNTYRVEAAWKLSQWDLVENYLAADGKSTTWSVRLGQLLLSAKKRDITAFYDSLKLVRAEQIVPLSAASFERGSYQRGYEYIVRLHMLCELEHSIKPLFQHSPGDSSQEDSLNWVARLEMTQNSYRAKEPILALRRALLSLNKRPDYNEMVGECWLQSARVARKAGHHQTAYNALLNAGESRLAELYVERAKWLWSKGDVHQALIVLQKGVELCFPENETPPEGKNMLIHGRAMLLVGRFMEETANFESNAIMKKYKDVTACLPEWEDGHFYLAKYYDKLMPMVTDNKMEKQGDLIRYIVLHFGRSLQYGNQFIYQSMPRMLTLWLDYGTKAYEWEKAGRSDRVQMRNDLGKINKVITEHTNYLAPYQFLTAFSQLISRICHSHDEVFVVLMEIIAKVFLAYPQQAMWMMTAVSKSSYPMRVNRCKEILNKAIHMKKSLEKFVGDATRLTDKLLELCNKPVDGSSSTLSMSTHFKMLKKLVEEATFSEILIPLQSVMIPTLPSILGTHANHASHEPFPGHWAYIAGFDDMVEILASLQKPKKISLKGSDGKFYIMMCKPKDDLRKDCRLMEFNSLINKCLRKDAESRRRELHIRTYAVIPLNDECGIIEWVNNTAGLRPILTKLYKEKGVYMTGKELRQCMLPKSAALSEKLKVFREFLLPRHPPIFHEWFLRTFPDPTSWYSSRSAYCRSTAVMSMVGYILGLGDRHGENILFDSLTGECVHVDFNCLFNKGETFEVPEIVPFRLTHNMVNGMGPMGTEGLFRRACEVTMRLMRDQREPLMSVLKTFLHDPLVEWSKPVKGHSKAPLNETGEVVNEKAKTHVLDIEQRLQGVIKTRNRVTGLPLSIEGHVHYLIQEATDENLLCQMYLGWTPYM

Compound | Ki
CN1CCC(OC2CCN(c3ccncc3NC(=O)c3c(N)nn4cc(F)cnc34)CC2)CC1 [I-N-154, 2-amino-6-fluoro-N-(4-(4-((1-methylpiperidin-4-yl)oxy)piperidin-1-yl)pyridin-3-yl)pyrazolo[1,5-a]pyrimidine-3-carboxamide] | 10 to 1000 nM
CN1CCN(c2cc(N)ncc2NC(=O)c2c(N)nn3cc(Cl)cnc23)CC1 [I-N-50, 2-amino-N-(6-amino-4-(4-methylpiperazin-1-yl)pyridin-3-yl)-6-chloropyrazolo[1,5-a]pyrimidine-3-carboxamide] | 10 to 1000 nM
N#CCc1cnc2c(C(=O)Nc3cnccc3OCCN)c(N)nn2c1 [I-O-83, 2-amino-N-(4-(2-aminoethoxy)pyridin-3-yl)-6-(cyanomethyl)pyrazolo[1,5-a]pyrimidine-3-carboxamide] | < 10 nM
COC(=O)N1CCN(c2c(F)cncc2NC(=O)c2c(N)nn3cc(F)cnc23)CC1 [I-N-261, methyl-4-(3-(2-amino-6-fluoropyrazolo[1,5-a]pyrimidine-3-carboxamido)-5-fluoropyridin-4-yl)piperazine-1-carboxylate] | 10 to 1000 nM
CO[C@H]1CCN(C(=O)C2CCN(c3c(F)cncc3NC(=O)c3c(N)nn4cc(F)cnc34)CC2)C1 [I-G-99, (S)-2-amino-6-fluoro-N-(5-fluoro-4-(4-(3-methoxypyrrolidine-1-carbonyl)piperidin-1-yl)pyridin-3-yl)pyrazolo[1,5-a]pyrimidine-3-carboxamide] | 10 to 1000 nM
CN1CCN(C(=O)C2CCN(c3c(F)cncc3NC(=O)c3c(N)nn4cc(F)cnc34)CC2)CC1(C)C [I-G-15, 2-amino-6-fluoro-N-(5-fluoro-4-(4-(3,3,4-trimethylpiperazine-1-carbonyl)piperidin-1-yl)pyridin-3-yl)pyrazolo[1,5-a]pyrimidine-3-carboxamide] | 10 to 1000 nM
COc1ccncc1NC(=O)c1c(N)nn2cc(C(C)C#N)cnc12 (centres unmarked) [I-O-21, 2-amino-6-(1-cyanoethyl)-N-(4-methoxypyridin-3-yl)pyrazolo[1,5-a]pyrimidine-3-carboxamide] | 10 to 1000 nM
CN1CCN(C(=O)C2CCN(c3c(Cl)cncc3NC(=O)c3c(N)nn4cc(F)cnc34)CC2)CC1 [I-G-3, 2-amino-N-(5-chloro-4-(4-(4-methylpiperazine-1-carbonyl)piperidin-1-yl)pyridin-3-yl)-6-fluoropyrazolo[1,5-a]pyrimidine-3-carboxamide] | 10 to 1000 nM
COc1cc(Cl)ncc1NC(=O)c1c(N)nn2cc(CC#N)cnc12 [I-O-27, 2-amino-N-(6-chloro-4-methoxypyridin-3-yl)-6-(cyanomethyl)pyrazolo[1,5-a]pyrimidine-3-carboxamide] | < 10 nM
Nc1nn2cc(Cl)cnc2c1C(=O)Nc1cnccc1OCCO [I-O-66, 2-amino-6-chloro-N-(4-(2-hydroxyethoxy)pyridin-3-yl)pyrazolo[1,5-a]pyrimidine-3-carboxamide] | 10 to 1000 nM
Cc1cccnc1-c1ccncc1NC(=O)c1c(N)nn2cc(F)cnc12 [I-C-36, 2-amino-6-fluoro-N-(3-methyl-[2,4′-bipyridin]-3′-yl)pyrazolo[1,5-a]pyrimidine-3-carboxamide] | 10 to 1000 nM
Nc1nn2cc(F)cnc2c1C(=O)Nc1cncc(F)c1N1CCC(C(=O)N2CC(N3CCC3)C2)CC1 [I-G-49, N-(4-(4-([1,3′-biazetidine]-1′-carbonyl)piperidin-1-yl)-5-fluoropyridin-3-yl)-2-amino-6-fluoropyrazolo[1,5-a]pyrimidine-3-carboxamide] | 10 to 1000 nM
Nc1nn2cc(F)cnc2c1C(=O)Nc1cncc(F)c1N1CCN(S(=O)(=O)C2CC2)CC1 [I-N-159, 2-amino-N-(4-(4-(cyclopropylsulfonyl)piperazin-1-yl)-5-fluoropyridin-3-yl)-6-fluoropyrazolo[1,5-a]pyrimidine-3-carboxamide] | 10 to 1000 nM
Nc1nn2cc(F)cnc2c1C(=O)Nc1cnccc1N1CCC2(CC1)COC2 [I-N-226, N-(4-(2-oxa-7-azaspiro[3.5]nonan-7-yl)pyridin-3-yl)-2-amino-6-fluoropyrazolo[1,5-a]pyrimidine-3-carboxamide] | 10 to 1000 nM
